In patent publication US6914045B2, “Glycopeptide antibiotics” (Wyeth Holdings Corporation, priority 2001, dated 2005):
Values after ≈ are worked out from the molar mass of the structure shown.

What was measured:
Experiment in all cases: in vitro antibacterial evaluation, MIC by broth dilution
Format in all cases: cell-based
[1] = test system: Escherichia coli; settings: broth dilution, 18 hours at 35° C.; for MIC Escherichia coli (ATCC 25922): strain ATCC 25922; for MIC Escherichia coli (GC 4559): strain GC 4559; for MIC Escherichia coli (GC 4560): strain GC 4560
Outline: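 Broth dilution MIC per NCCLS M7-A2 in Mueller-Hinton II medium, inoculum 5×10^5 CFU/mL, antibiotic range 64-0.06 μg/mL. MIC taken as lowest concentration inhibiting growth.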

[2] = test system: Streptococcus sp.; settings: broth dilution, 18 hours at 35° C.; for MIC Streptococcus pneumoniae (ATCC 6301): strain ATCC 6301; for MIC Streptococcus pneumoniae (GC 1894): strain GC 1894; for MIC Streptococcus pyogenes (GC 4563): strain GC 4563; for MIC Streptococcus agalactiae (GC 4564): strain GC 4564; for MIC Streptococcus pneumoniae (GC 4565): strain GC 4565
Experimental: (§1) Methods for in vitro Antibacterial Evaluation (Table 1)
(§2) The minimum inhibitory concentration (MIC), the lowest concentration of the antibiotic which inhibits growth of the test organism, is determined by the broth dilution method using Muller-Hinton II […] (Baltimore Biological Laboratories) following the recommendations of the National Committee for Clinical Laboratory Standards [Methods for dilution antimicrobial susceptibility tests for bacteria that grow aerobically, approved standard M7-A2, National Committee for Clinical Laboratory Standards, Villanova, Pa.].
(§3) An inoculum level of 5×10^5 CFU/mL, and a range of antibiotic concentrations (64-0.06 μg/mL) is used. […] The test organisms include a spectrum of Gram-positive bacteria comprised of Staphylococcus sp., Streptococcus sp. and Enterococcus sp. These organisms include recent clinical isolates that are resistant to methicillin, penicillin and/or vancomycin.

[3] = test system: Enterococcus sp.; settings: broth dilution, 18 hours at 35° C.; for MIC Enterococcus faecalis (ATCC 29212): strain ATCC 29212; for MIC Enterococcus faecalis (GC 2242): strain GC 2242; for MIC Enterococcus faecium (GC 2243): strain GC 2243; for MIC Enterococcus faecalis (GC 2691): strain GC 2691; for MIC Enterococcus faecalis (GC 3059): strain GC 3059; for MIC Enterococcus faecalis (GC 4552): strain GC 4552; for MIC Enterococcus faecalis (GC 4553): strain GC 4553; for MIC Enterococcus faecalis (GC 4554): strain GC 4554; for MIC Enterococcus faecium (GC 4556): strain GC 4556; for MIC Enterococcus faecium (GC 4557): strain GC 4557; for MIC Enterococcus avium (GC 4558): strain GC 4558; for MIC Enterococcus faecalis (GC 6189): strain GC 6189
Experimental: as §1, §2, §3

[4] = test system: Staphylococcus sp.; settings: broth dilution, 18 hours at 35° C.; for MIC Staphylococcus aureus (ATCC 29213): strain ATCC 29213; for MIC Staphylococcus aureus (GC 1131): strain GC 1131; for MIC Staphylococcus aureus (GC 3051): strain GC 3051; for MIC Staphylococcus aureus (GC 3053): strain GC 3053; for MIC Staphylococcus aureus (GC 4541): strain GC 4541; for MIC Staphylococcus aureus (GC 4542): strain GC 4542; for MIC Staphylococcus aureus-SMITH (GC 4543): strain GC 4543; for MIC Staphylococcus aureus (GC 4544): strain GC 4544; for MIC Staphylococcus aureus (GC 4545): strain GC 4545; for MIC Staphylococcus haemolyticus (GC 4546): strain GC 4546; for MIC Coagulase Negative Staphylococcus (GC 4547): strain GC 4547; for MIC Coagulase Negative Staphylococcus (GC 4548): strain GC 4548; for MIC Coagulase Negative Staphylococcus (GC 4549): strain GC 4549; for MIC Coagulase Negative Staphylococcus (GC 4551): strain GC 4551; for MIC Coagulase Negative Staphylococcus (GC 6257): strain GC 6257
Experimental: as §1, §2, §3

| SMILES | MIC Escherichia coli (ATCC 25922) [1] | MIC Escherichia coli (GC 4559) [1] | MIC Escherichia coli (GC 4560) [1] | MIC Streptococcus pneumoniae (ATCC 6301) [2] | MIC Streptococcus pneumoniae (GC 1894) [2] | MIC Streptococcus pyogenes (GC 4563) [2] | MIC Streptococcus agalactiae (GC 4564) [2] | MIC Streptococcus pneumoniae (GC 4565) [2] | MIC Enterococcus faecalis (ATCC 29212) [3] | MIC Enterococcus faecalis (GC 2242) [3] | MIC Enterococcus faecium (GC 2243) [3] | MIC Enterococcus faecalis (GC 2691) [3] | MIC Enterococcus faecalis (GC 3059) [3] | MIC Enterococcus faecalis (GC 4552) [3] | MIC Enterococcus faecalis (GC 4553) [3] | MIC Enterococcus faecalis (GC 4554) [3] | MIC Enterococcus faecium (GC 4556) [3] | MIC Enterococcus faecium (GC 4557) [3] | MIC Enterococcus avium (GC 4558) [3] | MIC Enterococcus faecalis (GC 6189) [3] | further results |
| --- | --- | --- | --- | --- | --- | --- | --- | --- | --- | --- | --- | --- | --- | --- | --- | --- | --- | --- | --- | --- | --- |
| CC(=O)Nc1cc(CC2NC(=O)C(C(C)c3ccccc3)NC(=O)CNC(=O)C(CO)NC(=O)C(C(O)C3CNC(=N)N3C3OC(CO)C(O)C(O)C3O)NC(=O)C(C(O)C3CNC(=N)N3)NC2=O)ccc1O (stereo not drawn) [Example 13, Cyclo[-glycyl-β-methylphenylalanyl-3-acetamidotyrosyl-3-(2-iminoimidazolidin-4-yl)seryl-3-(3-hexopyranosyl-2-iminoimidazolodin-4-yl)serylseryl]] | >64 µg/mL | >64 µg/mL | 32 µg/mL (≈ 31.1 µM) | 4 µg/mL (≈ 3.89 µM) | 2 µg/mL (≈ 1.95 µM) | 8 µg/mL (≈ 7.78 µM) | 16 µg/mL (≈ 15.6 µM) | 4 µg/mL (≈ 3.89 µM) | >64 µg/mL | 64 µg/mL (≈ 62.3 µM) | 64 µg/mL (≈ 62.3 µM) | >64 µg/mL | >64 µg/mL | >64 µg/mL | 64 µg/mL (≈ 62.3 µM) | >64 µg/mL | 64 µg/mL (≈ 62.3 µM) | 64 µg/mL (≈ 62.3 µM) | 64 µg/mL (≈ 62.3 µM) | >64 µg/mL | MIC Staphylococcus aureus (ATCC 29213) [4]: 64 µg/mL (≈ 62.3 µM); MIC Staphylococcus aureus (GC 1131) [4]: 64 µg/mL (≈ 62.3 µM); MIC Staphylococcus aureus (GC 3051) [4]: 64 µg/mL (≈ 62.3 µM); MIC Staphylococcus aureus (GC 3053) [4]: 64 µg/mL (≈ 62.3 µM); MIC Staphylococcus aureus (GC 4541) [4]: 64 µg/mL (≈ 62.3 µM); MIC Staphylococcus aureus (GC 4542) [4]: 64 µg/mL (≈ 62.3 µM); MIC Staphylococcus aureus-SMITH (GC 4543) [4]: 64 µg/mL (≈ 62.3 µM); MIC Staphylococcus aureus (GC 4544) [4]: 64 µg/mL (≈ 62.3 µM); MIC Staphylococcus aureus (GC 4545) [4]: 64 µg/mL (≈ 62.3 µM); MIC Staphylococcus haemolyticus (GC 4546) [4]: 64 µg/mL (≈ 62.3 µM); MIC Coagulase Negative Staphylococcus (GC 4547) [4]: 64 µg/mL (≈ 62.3 µM); MIC Coagulase Negative Staphylococcus (GC 4548) [4]: 64 µg/mL (≈ 62.3 µM); MIC Coagulase Negative Staphylococcus (GC 4549) [4]: 32 µg/mL (≈ 31.1 µM); MIC Coagulase Negative Staphylococcus (GC 4551) [4]: 64 µg/mL (≈ 62.3 µM); MIC Coagulase Negative Staphylococcus (GC 6257) [4]: 32 µg/mL (≈ 31.1 µM) |
| CCC(=O)Nc1cc(CC2NC(=O)C(C(C)c3ccccc3)NC(=O)CNC(=O)C(CO)NC(=O)C(C(O)C3CNC(=N)N3C3OC(CO)C(O)C(O)C3O)NC(=O)C(C(O)C3CNC(=N)N3)NC2=O)ccc1O (stereo not drawn) [Example 14, Cyclo[glycyl-β-methylphenylalanyl-3-(propanamido)tyrosyl-3-(2-iminoimidazolidin-4-yl)seryl-3-(3-hexopyranosyl-2-iminoimidazolidin-4-yl)serylseryl]] | >128 µg/mL | >128 µg/mL | 128 µg/mL (≈ 123 µM) | >128 µg/mL | 128 µg/mL (≈ 123 µM) | >128 µg/mL | 128 µg/mL (≈ 123 µM) | 64 µg/mL (≈ 61.4 µM) | >128 µg/mL | >128 µg/mL | >128 µg/mL | >128 µg/mL | >128 µg/mL | >128 µg/mL | >128 µg/mL | >128 µg/mL | >128 µg/mL | >128 µg/mL | 128 µg/mL (≈ 123 µM) | >128 µg/mL | MIC Staphylococcus aureus (ATCC 29213) [4]: >128 µg/mL; MIC Staphylococcus aureus (GC 1131) [4]: >128 µg/mL; MIC Staphylococcus aureus (GC 3051) [4]: >128 µg/mL; MIC Staphylococcus aureus (GC 3053) [4]: >128 µg/mL; MIC Staphylococcus aureus (GC 4541) [4]: >128 µg/mL; MIC Staphylococcus aureus (GC 4542) [4]: >128 µg/mL; MIC Staphylococcus aureus-SMITH (GC 4543) [4]: >128 µg/mL; MIC Staphylococcus aureus (GC 4544) [4]: >128 µg/mL; MIC Staphylococcus aureus (GC 4545) [4]: >128 µg/mL; MIC Staphylococcus haemolyticus (GC 4546) [4]: >128 µg/mL; MIC Coagulase Negative Staphylococcus (GC 4547) [4]: >128 µg/mL; MIC Coagulase Negative Staphylococcus (GC 4548) [4]: >128 µg/mL; MIC Coagulase Negative Staphylococcus (GC 4549) [4]: >128 µg/mL; MIC Coagulase Negative Staphylococcus (GC 4551) [4]: >128 µg/mL; MIC Coagulase Negative Staphylococcus (GC 6257) [4]: >128 µg/mL |
